In patent publication US7678583B2, “Method of lysis of erythrocytes” (Immunotech, S.A., priority 2000, dated 2010):

What was measured:
[1] = Experiment 2: conversion of ammonium carbamate into ammonium carbonate, precipitation in 85% of acetone; assay type: biochemical
erythrocytes = assay: Experiment 3: speed of lysis with carbonic anhydrases from different sources in lysis reagent according to Example 1; assay type: cell-based; conditions: Example 1 reagent, carbonic anhydrase replaced by preparation at 5000 W-A U/l; OD at 700 nm; time to minimum level
Experimental: In a lysis reagent according to Example 1, the component carbonic anhydrase at 50,000 W-A U/I was replaced by preparations of carbonic anhydrase as indicated in the table, each at 5000 W-A U/I. The lysis process was tracked spectrophotometrically (measurement of the OD at 700 nm). The duration of the lysis is determined by the time necessary to achieve a minimum level.

Row | Molecule | Speed of lysis at 5000 W-A U/l (erythrocytes) [min] | other results
1 | N.NC(=O)O [100 mM NH2CO2NH4, ammonium carbamate, reference compound] | – | Duration before complete precipitation in 85% of acetone ([1]; carbonate precipitates and not the carbamate): 240 min
2 | CAI, C-5290: carbonic anhydrase I preparation, Sigma, human | 3.24 | –
3 | carbonic anhydrase | – | catalysis of the conversion carbonate / carbamate+H2O (in words) [1]: also catalyses the conversion carbonate
4 | CAI, C-4396: carbonic anhydrase I preparation, Sigma, human | 5.06 | –
5 | CAII, C-2522: carbonic anhydrase II preparation, Sigma, bovine | 8.51 | –
